Source: patent US8883826B2, “Alkynyl derivatives as modulators of metabotropic glutamate receptors” (Addex Pharma SA, priority 2004, dated 2014)
pIC50: −log10 of the molar value.

These molecules were tested against T1, mGluR5 (Rattus norvegicus, UniProt P31424) (assay: mGluR5 binding assay ([3H]-MPEP radioligand competition)). Conditions: competition with 3 nM [3H]-MPEP, rat brain cortical membranes, 1 h at 4 °C; mean of at least three independent experiments in duplicate.
T1 construct: tissue Charles River Laboratories; host or cells: rat brain cortex membranes (Sprague-Dawley)
T1 sequence (P31424 21-1203): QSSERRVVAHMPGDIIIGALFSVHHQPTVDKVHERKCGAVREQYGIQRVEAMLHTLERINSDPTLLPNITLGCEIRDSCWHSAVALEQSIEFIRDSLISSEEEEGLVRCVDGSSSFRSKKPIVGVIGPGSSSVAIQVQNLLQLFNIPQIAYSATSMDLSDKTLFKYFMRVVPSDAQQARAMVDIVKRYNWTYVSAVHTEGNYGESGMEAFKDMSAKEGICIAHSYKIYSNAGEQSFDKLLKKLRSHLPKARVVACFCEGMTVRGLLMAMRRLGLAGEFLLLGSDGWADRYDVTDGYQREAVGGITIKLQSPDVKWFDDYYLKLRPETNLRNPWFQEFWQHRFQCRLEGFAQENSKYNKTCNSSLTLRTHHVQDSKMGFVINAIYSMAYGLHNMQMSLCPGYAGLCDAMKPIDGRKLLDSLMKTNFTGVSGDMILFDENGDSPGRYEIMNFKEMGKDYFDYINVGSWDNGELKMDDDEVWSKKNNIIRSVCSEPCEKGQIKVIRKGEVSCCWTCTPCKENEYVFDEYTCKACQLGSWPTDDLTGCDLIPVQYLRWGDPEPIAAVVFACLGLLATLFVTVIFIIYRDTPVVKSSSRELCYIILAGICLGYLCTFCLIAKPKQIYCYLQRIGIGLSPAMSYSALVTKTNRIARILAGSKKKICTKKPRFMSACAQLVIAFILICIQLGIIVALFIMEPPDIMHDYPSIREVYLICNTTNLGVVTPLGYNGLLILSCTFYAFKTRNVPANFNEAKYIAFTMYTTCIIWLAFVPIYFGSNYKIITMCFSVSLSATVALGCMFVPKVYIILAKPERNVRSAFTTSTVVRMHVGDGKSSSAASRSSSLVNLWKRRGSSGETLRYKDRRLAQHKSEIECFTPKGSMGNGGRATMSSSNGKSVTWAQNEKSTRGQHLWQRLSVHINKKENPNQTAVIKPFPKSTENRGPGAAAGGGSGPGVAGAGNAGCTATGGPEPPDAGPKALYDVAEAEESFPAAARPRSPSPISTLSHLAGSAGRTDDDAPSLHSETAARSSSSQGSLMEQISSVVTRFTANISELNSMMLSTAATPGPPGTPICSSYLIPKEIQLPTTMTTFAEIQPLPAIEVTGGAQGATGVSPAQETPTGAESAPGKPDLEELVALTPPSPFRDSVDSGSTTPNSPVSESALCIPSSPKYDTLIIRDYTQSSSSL
Excerpt: Activity of compounds of the invention was examined following a radioligand binding technique using whole rat brain and tritiated 2-methyl-6-(phenylethynyl)-pyridine ([^3H]-MPEP) as a ligand following similar methods than those described in F. Gasparini et al. Bioorg. Med. Chem. Lett. 2002, 12, 407-409 and in J. F. Anderson et al. J. Pharmacol. Exp. Ther. 2002, 303, 3, 1044-1051.
Cortices were dissected out from brains of 200-300 g Sprague-Dawley rats (Charles River Laboratories, L'Arbresle, France). Tissues were homogenized in 10 volumes (vol/wt) of ice-cold 50 mM Hepes-NaOH (pH 7.4) using a Polytron disrupter (Kinematica AG, Luzern, Switzerland) and centrifuged for 30 min at 40,000 g. (4° C.). The supernatant was discarded and the pellet washed twice by resuspension in 10 volumes 50 mM HEPES-NaOH. Membranes were then collected by centrifugation and washed before final resuspension in 10 volumes of 20 mM HEPES-NaOH, pH 7.4. Protein concentration was determined by the Bradford method (Bio-Rad protein assay, Reinach, Switzerland) with bovine serum albumin as standard.
[^3H]-MPEP Binding Experiments:
Membranes were thawed and resuspended in binding buffer containing 20 mM HEPES-NaOH, 3 mM MgCl2, 3 mM CaCl2, 100 mM NaCl, pH 7.4. Competition studies were carried out by incubating for 1 h at 4° C.: 3 nM [^3H]-MPEP (39 Ci/mmol, Tocris, Cookson Ltd, Bristol, U.K.), 50 μg membrane and a concentration range of 0.003 nM-30 μM of compounds, for a total reaction volume of 300 μl. The non-specific binding was defined using 30 μM MPEP. Reaction was terminated by rapid filtration over glass-fiber filter plates (Unifilter 96-well GF/B filter plates, Perkin-Elmer, Schwerzenbach, Switzerland) using 4×400 μl ice cold buffer using cell harvester (Filtermate, Perkin-Elmer, Downers Grove, USA). Radioactivity was determined by liquid scintillation spectrometry using a 96-well plate reader (TopCount, Perkin-Elmer, Downers Grove, USA).
The inhibition curves were generated using the Prism GraphPad program (Graph Pad Software Inc, San Diego, USA). IC50 determinations were made from data obtained from 8 point-concentration response curves using a non linear regression analysis.
The table below represents the mean of IC50 obtained from at least three independent experiments of selected molecules performed in duplicate.
Molecule “2-(4-(3-Methyl-4-phenyl-1H-pyrazol-1-yl)but-1-ynyl)pyridine and 2-(4-(5-methyl-4-phenyl-1H-pyrazol-1-yl)but-1-ynyl)pyridine [Example 174]” has a pIC50 of over 5.00.
In the case of `Cc1nc(C#CCCc2ccccc2)cs1` [Example 1, 2-Methyl-(4-(4-phenyl)but-1-ynyl)thiazole], the pIC50 was over 6.30.
`CCc1ccccc1-c1noc(CCC#Cc2ccccn2)n1` [Example 2, 2-(4-(3-(2-Ethylphenyl)-1,2,4-oxadiazol-5-yl)but-1-ynyl)pyridine] showed a pIC50 of over 5.00.
`O=C1c2ccccc2C(=O)N1CCC#Cc1ccccn1` [Example 3, 2-(4-(Pyridin-2-yl)but-3-ynyl)isoindoline-1,3-dione] gave a pIC50 of over 5.00.
For `O=c1c2ccccc2cnn1CCC#Cc1ccccn1` [Example 4, 2-(4-(Pyridin-2-yl)but-3-ynyl)phthalazin-1(2H)-one], the pIC50 was over 5.00.
For `C(#Cc1ccc2ccccc2n1)CCc1ccccc1` [Example 5, 2-(4-Phenylbut-1-ynyl)quinoline], the pIC50 was over 5.00.
Molecule `C(#Cc1nc2ccccc2o1)CCc1ccccc1` [Example 7, 2-(4-Phenylbut-1-ynyl)benzo[d]oxazole] has a pIC50 of over 6.30.
Work on `Fc1ccc(-c2noc(CCC#Cc3ccccn3)n2)cc1` [Example 9, 2-(4-(3-(4-Fluorophenyl)-1,2,4-oxadiazol-5-yl)but-1-ynyl)pyridine] yielded a pIC50 of over 5.00.
`C(#Cc1ccccn1)CCc1nc(-c2ccccc2)no1` [Example 10] gave a pIC50 of over 5.00.
With `CN(C(=O)CCC#Cc1ccccn1)c1ccc(F)cc1` [Example 13, N-(4-Fluorophenyl)-N-methyl-5-(pyridin-2-yl)pent-4-ynamide] the pIC50 was over 6.30.
In the case of `C(#Cc1ccccn1)CCc1csc(-c2ccccc2)n1` [Example 14, 2-(4-(2-Phenylthiazol-4-yl)but-1-ynyl)pyridine], the pIC50 was over 5.00.
In the case of `Cc1ccccc1-c1noc(CCC#Cc2ccccn2)n1` [Example 15], the pIC50 was over 6.30.
Molecule `C(#Cc1ccccn1)CCc1nc(Cc2ccccc2)no1` [Example 16, 2-(4-(3-Benzyl-1,2,4-oxadiazol-5-yl)but-1-ynyl)pyridine] has a pIC50 of over 5.00.
`Fc1ccccc1Cc1noc(CCC#Cc2ccccn2)n1` [Example 17, 2-(4-(3-(2-Fluorobenzyl)-1,2,4-oxadiazol-5-yl)but-1-ynyl)pyridine] showed a pIC50 of over 5.00.
Molecule `Cc1ccccc1Cc1noc(CCC#Cc2ccccn2)n1` [Example 18, 2-(4-(3-(2-Methylbenzyl)-1,2,4-oxadiazol-5-yl)but-1-ynyl)pyridine] has a pIC50 of over 5.00.
`Fc1ccc(Cc2noc(CCC#Cc3ccccn3)n2)cc1` [Example 19, 2-(4-(3-(4-Fluorobenzyl)-1,2,4-oxadiazol-5-yl)but-1-ynyl)pyridine] showed a pIC50 of over 5.00.
For `COc1ccc(Cc2noc(CCC#Cc3ccccn3)n2)cc1` [Example 20, 2-(4-(3-(4-Methoxybenzyl)-1,2,4-oxadiazol-5-yl)but-1-ynyl)pyridine], the pIC50 was over 5.00.
Work on `CC(C)c1noc(CCC#Cc2ccccn2)n1` [Example 21, 2-(4-(3-Isopropyl-1,2,4-oxadiazol-5-yl)but-1-ynyl)pyridine] yielded a pIC50 of over 5.00.
For `CCCCc1noc(CCC#Cc2ccccn2)n1` [Example 22, 2-(4-(3-Butyl-1,2,4-oxadiazol-5-yl)but-1-ynyl)pyridine], the pIC50 was over 5.00.
`Fc1cccc(Cc2noc(CCC#Cc3ccccn3)n2)c1` [Example 23, 2-(4-(3-(3-Fluorobenzyl)-1,2,4-oxadiazol-5-yl)but-1-ynyl)pyridine] showed a pIC50 of over 5.00.
Work on `COc1cccc(Cc2noc(CCC#Cc3ccccn3)n2)c1` [Example 24, 2-(4-(3-(3-Methoxybenzyl)-1,2,4-oxadiazol-5-yl)but-1-ynyl)pyridine] yielded a pIC50 of over 5.00.
With `Fc1ccccc1-c1noc(CCC#Cc2ccccn2)n1` [Example 25, 2-(4-(3-(2-Fluorophenyl)-1,2,4-oxadiazol-5-yl)but-1-ynyl)pyridine] the pIC50 was over 6.30.
With `Fc1cccc(-c2noc(CCC#Cc3ccccn3)n2)c1` [Example 26, 2-(4-(3-(3-Fluorophenyl)-1,2,4-oxadiazol-5-yl)but-1-ynyl)pyridine] the pIC50 was over 5.00.
`Cc1ccc2oc(CCC#Cc3ccccn3)nc2c1` [Example 28, 5-Methyl-(2-(4-pyridin-2-yl)but-3-ynyl)benzo[d]oxazole] showed a pIC50 of over 5.00.
In the case of `Cc1ccc2nc(CCC#Cc3ccccn3)oc2c1` [Example 29, 6-Methyl-(2-(4-pyridin-2-yl)but-3-ynyl)benzo[d]oxazole], the pIC50 was over 5.00.
`Cc1cccc2oc(CCC#Cc3ccccn3)nc12` [Example 30, 4-Methyl-(2-(4-pyridin-2-yl)but-3-ynyl)benzo[d]oxazole] showed a pIC50 of over 5.00.
With `Cc1nc(C#CCCc2nc3ccccc3o2)cs1` [Example 31, 2-(4-(2-Methylthiazol-4-yl)but-3-ynyl)benzo[d]oxazole] the pIC50 was over 7.30.
Molecule `C(#Cc1ccccn1)CCc1cn2ccccc2n1` [Example 33, 2-(4-(Pyridin-2-yl)but-3-ynyl)-imidazo[1,2-a]pyridine] has a pIC50 of over 7.30.
Work on `COc1ccccc1-c1noc(CCC#Cc2ccccn2)n1` [Example 40, 2-(4-(3-(2-Methoxyphenyl)-1,2,4-oxadiazol-5-yl)but-1-ynyl)pyridine] yielded a pIC50 of over 5.00.
`COc1cccc(-c2noc(CCC#Cc3ccccn3)n2)c1` [Example 41, 2-(4-(3-(3-Methoxyphenyl)-1,2,4-oxadiazol-5-yl)but-1-ynyl)pyridine] showed a pIC50 of over 5.00.
Molecule `COc1ccc(-c2noc(CCC#Cc3ccccn3)n2)cc1` [Example 42, 2-(4-(3-(4-Methoxyphenyl)-1,2,4-oxadiazol-5-yl)but-1-ynyl)pyridine] has a pIC50 of over 5.00.
`Cc1cccc(-c2noc(CCC#Cc3ccccn3)n2)c1` [Example 43, 2-(4-(3-m-Tolyl-1,2,4-oxadiazol-5-yl)but-1-ynyl)pyridine] was tested, and the pIC50 was over 5.00.
Molecule `Cc1ccc(-c2noc(CCC#Cc3ccccn3)n2)cc1` [Example 44, 2-(4-(3-p-Tolyl-1,2,4-oxadiazol-5-yl)but-1-ynyl)pyridine] has a pIC50 of over 5.00.
`Clc1ccccc1-c1noc(CCC#Cc2ccccn2)n1` [Example 45, 2-(4-(3-(2-Chlorophenyl)-1,2,4-oxadiazol-5-yl)but-1-ynyl)pyridine] gave a pIC50 of over 5.00.
With `Clc1cccc(-c2noc(CCC#Cc3ccccn3)n2)c1` [Example 46, 2-(4-(3-(3-Chlorophenyl)-1,2,4-oxadiazol-5-yl)but-1-ynyl)pyridine] the pIC50 was over 5.00.
`Cc1cccc(C)c1-c1noc(CCC#Cc2ccccn2)n1` [Example 48, 2-(4-(3-(2,6-Dimethylphenyl)-1,2,4-oxadiazol-5-yl)but-1-ynyl)pyridine] gave a pIC50 of over 6.30.
In the case of `FC(F)(F)c1ccccc1-c1noc(CCC#Cc2ccccn2)n1` [Example 49], the pIC50 was over 5.00.
In the case of `C(#Cc1ccccn1)CCc1nc(-c2cccc3ccccc23)no1` [Example 50, 2-(4-(3-(Naphthalen-1-yl)-1,2,4-oxadiazol-5-yl)but-1-ynyl)pyridine], the pIC50 was over 5.00.
For `Cc1cccc(-c2noc(CCC#Cc3ccccn3)n2)c1C` [Example 52, 2-(4-(3-(2,3-Dimethylphenyl)-1,2,4-oxadiazol-5-yl)but-1-ynyl)pyridine], the pIC50 was over 5.00.
`Clc1ccc(Cl)c(-c2noc(CCC#Cc3ccccn3)n2)c1` [Example 53, 2-(4-(3-(2,5-Dichlorophenyl)-1,2,4-oxadiazol-5-yl)but-1-ynyl)pyridine] gave a pIC50 of over 5.00.
With `Cc1ccc(C)c(-c2noc(CCC#Cc3ccccn3)n2)c1` [Example 54, 2-(4-(3-(2,5-Dimethylphenyl)-1,2,4-oxadiazol-5-yl)but-1-ynyl)pyridine] the pIC50 was over 5.00.
`Clc1cccc(Cl)c1-c1noc(CCC#Cc2ccccn2)n1` [Example 55, 2-(4-(3-(2,6-Dichlorophenyl)-1,2,4-oxadiazol-5-yl)but-1-ynyl)pyridine] gave a pIC50 of over 5.00.
Molecule `Clc1cccc(-c2noc(CCC#Cc3ccccn3)n2)c1Cl` [Example 56, 2-(4-(3-(2,3-Dichlorophenyl)-1,2,4-oxadiazol-5-yl)but-1-ynyl)pyridine] has a pIC50 of over 5.00.
Work on `Cc1cccc(Cl)c1-c1noc(CCC#Cc2ccccn2)n1` [Example 58, 2-(4-(3-(2-Chloro-6-methylphenyl)-1,2,4-oxadiazol-5-yl)but-1-ynyl)pyridine] yielded a pIC50 of over 5.00.
Work on `FC(F)(F)Oc1ccccc1-c1noc(CCC#Cc2ccccn2)n1` [Example 61, 2-(4-(3-(2-(Trifluoromethoxy)phenyl)-1,2,4-oxadiazol-5-yl)but-1-ynyl)pyridine] yielded a pIC50 of over 5.00.
`Fc1ccc2nc(CCC#Cc3ccccn3)oc2c1` [Example 62, 6-Fluoro-2-(4-(pyridin-2-yl)but-3-ynyl)benzo[d]oxazole] showed a pIC50 of over 7.30.
Work on `Clc1cccc2nc(CCC#Cc3ccccn3)oc12` [Example 63, 7-Chloro-2-(4-(pyridin-2-yl)but-3-ynyl)benzo[d]oxazole] yielded a pIC50 of over 7.30.
